Measurements reported in ChEMBL document CHEMBL1833869, “Effect of lipophilicity modulation on inhibition of human rhinovirus capsid binders” (Bioorg Med Chem Lett, 2011).
In brackets after ≈: the same amount, converted by molar mass. One block for each compound: values may come before it.

Experiments:
[1] = test system: rhinovirus A16; assay: Antiviral activity against Human rhinovirus 16 infected in human HeLa Ohio cells assessed as inhibition of virus-induced cytopathic effect by CellTiter-Glo assay; format: functional, organism-based; conditions: Rhinovirus A
[2] = molecular target: T1, Nuclear receptor subfamily 1 group I member 2 (Homo sapiens, UniProt O75469); assay: Activation of human PXR expressed in african green monkey CV1 cells transfected with pSG5-hPXRDATG and (ER6)3-tk-CAT reporter; format: cell-based, CV-1
T1 sequence (O75469 whole entry): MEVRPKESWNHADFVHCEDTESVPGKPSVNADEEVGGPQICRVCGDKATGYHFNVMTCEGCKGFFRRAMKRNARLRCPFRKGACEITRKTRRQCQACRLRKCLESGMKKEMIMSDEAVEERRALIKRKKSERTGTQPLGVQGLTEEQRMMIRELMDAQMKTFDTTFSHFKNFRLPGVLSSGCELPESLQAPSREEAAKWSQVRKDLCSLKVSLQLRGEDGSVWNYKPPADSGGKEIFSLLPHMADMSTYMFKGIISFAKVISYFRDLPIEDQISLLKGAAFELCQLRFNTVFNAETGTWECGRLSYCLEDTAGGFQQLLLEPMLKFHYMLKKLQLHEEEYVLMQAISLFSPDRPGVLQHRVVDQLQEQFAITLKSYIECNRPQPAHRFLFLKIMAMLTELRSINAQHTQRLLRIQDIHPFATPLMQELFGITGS

[3] = Lipophilicity, log D of the compound; format: physicochemical; conditions: octanol/water
[4] = Intrinsic clearance in Sprague-Dawley rat hepatocytes assessed per 10^6 cells preincubated for 5 mins measured after 90 mins; format: ADME, cell-based, Liver, Hepatocyte
[5] = molecular target: T2, Cytochrome P450 3A4 (Homo sapiens, UniProt P08684); assay: Time dependent inhibition of CYP3A4; format: ADME
T2 sequence (P08684 whole entry): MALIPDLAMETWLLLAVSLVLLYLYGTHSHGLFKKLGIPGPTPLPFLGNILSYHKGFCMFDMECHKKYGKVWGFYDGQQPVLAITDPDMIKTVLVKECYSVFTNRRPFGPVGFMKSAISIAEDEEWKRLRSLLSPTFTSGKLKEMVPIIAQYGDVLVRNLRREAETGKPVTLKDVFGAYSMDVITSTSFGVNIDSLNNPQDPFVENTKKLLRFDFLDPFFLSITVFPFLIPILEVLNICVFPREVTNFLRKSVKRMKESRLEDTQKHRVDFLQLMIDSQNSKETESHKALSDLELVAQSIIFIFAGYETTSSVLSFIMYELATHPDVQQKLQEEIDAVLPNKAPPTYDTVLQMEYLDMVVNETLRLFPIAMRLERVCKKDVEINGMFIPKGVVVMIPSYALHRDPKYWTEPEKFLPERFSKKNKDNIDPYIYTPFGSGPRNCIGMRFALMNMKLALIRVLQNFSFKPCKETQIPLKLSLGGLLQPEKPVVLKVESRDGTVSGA

[6] = molecular target: T3, PXR (NR1I2) (Homo sapiens, UniProt O75469); assay: Activation of human PXR expressed in african green monkey CV1 cells transfected with pSG5-hPXRDATG and (ER6)3-tk-CAT reporter assessed as maximal activation relative to control; format: cell-based, CV-1
T3 sequence (O75469 whole entry): T1 sequence (O75469 whole entry)

[7] = test system: rhinovirus A2; assay: Antiviral activity against Human rhinovirus 2 infected in human HeLa Ohio cells assessed as inhibition of virus-induced cytopathic effect by CellTiter-Glo assay; format: functional, organism-based; conditions: Rhinovirus A
[8] = Apparent permeability of compound by PAMPA; format: ADME
[9] = Oral bioavailability in rat; format: ADME, organism-based; conditions: in vivo
[10] = Intrinsic clearance in human microsomes after 45 mins by HPLC method; format: ADME, Microsome
[11] = Unbound fraction in human plasma; format: ADME, cell-free
[12] = molecular target: T4, Cytochrome P450 2D6 (Homo sapiens, UniProt P10635); assay: Time dependent inhibition of CYP2D6; format: ADME
T4 sequence (P10635 whole entry): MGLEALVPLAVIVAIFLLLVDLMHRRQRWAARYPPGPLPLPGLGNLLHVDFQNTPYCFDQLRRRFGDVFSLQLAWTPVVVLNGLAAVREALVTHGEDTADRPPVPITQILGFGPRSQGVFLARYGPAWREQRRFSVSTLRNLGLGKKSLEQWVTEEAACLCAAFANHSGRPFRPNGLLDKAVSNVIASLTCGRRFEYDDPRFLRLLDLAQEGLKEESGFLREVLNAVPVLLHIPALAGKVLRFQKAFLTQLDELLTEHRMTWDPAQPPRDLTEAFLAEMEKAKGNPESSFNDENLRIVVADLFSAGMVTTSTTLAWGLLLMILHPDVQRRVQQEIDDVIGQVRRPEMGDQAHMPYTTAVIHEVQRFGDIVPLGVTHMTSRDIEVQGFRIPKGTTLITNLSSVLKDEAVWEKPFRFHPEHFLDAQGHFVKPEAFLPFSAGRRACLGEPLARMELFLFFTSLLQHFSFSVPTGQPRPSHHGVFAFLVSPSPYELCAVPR

[13] = molecular target: T4, Cytochrome P450 2D6; assay: Inhibition of CYP2D6; format: ADME
[14] = Clearance in rat at 2 mg/kg, iv; format: ADME, organism-based; design: dose 2 mg/kg, route intravenous; conditions: in vivo
[15] = molecular target: T5, Cytochrome P450 2C9 (Homo sapiens, UniProt P11712); assay: Time dependent inhibition of CYP2C9; format: ADME
T5 sequence (P11712 whole entry): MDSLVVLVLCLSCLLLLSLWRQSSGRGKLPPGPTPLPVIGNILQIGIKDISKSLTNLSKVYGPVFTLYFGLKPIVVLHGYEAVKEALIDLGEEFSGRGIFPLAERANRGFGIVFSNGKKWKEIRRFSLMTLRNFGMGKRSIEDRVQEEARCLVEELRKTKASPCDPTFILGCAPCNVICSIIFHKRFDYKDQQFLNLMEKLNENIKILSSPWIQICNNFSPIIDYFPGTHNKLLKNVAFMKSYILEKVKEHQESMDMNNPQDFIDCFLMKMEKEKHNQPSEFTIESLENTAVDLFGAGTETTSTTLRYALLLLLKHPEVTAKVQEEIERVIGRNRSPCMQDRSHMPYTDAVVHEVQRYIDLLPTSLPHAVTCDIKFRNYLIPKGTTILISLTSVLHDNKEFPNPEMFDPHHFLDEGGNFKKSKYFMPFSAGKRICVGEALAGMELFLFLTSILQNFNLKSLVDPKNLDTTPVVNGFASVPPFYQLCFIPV

[16] = molecular target: T6, Cytochrome P450 1A2 (Homo sapiens, UniProt P05177); assay: Inhibition of CYP1A2; format: ADME
T6 sequence (P05177 whole entry): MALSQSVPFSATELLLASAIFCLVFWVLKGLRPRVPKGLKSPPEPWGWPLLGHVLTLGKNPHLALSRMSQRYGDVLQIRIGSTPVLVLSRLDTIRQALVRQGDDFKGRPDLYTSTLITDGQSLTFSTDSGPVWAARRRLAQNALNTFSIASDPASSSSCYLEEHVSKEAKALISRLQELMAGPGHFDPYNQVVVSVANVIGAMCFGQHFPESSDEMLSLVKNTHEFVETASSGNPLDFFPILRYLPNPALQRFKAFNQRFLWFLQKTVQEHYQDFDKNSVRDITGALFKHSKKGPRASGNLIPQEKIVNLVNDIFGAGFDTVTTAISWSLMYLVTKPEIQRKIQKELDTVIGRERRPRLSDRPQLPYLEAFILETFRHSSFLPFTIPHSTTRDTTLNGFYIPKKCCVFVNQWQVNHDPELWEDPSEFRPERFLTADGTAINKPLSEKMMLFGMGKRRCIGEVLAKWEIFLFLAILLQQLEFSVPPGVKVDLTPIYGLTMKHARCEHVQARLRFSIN

[17] = molecular target: T6, Cytochrome P450 1A2; assay: Time dependent inhibition of CYP1A2; format: ADME
[18] = molecular target: T7, Cytochrome P450 2C19 (Homo sapiens, UniProt P33261); assay: Inhibition of CYP2C19; format: ADME
T7 sequence (P33261 whole entry): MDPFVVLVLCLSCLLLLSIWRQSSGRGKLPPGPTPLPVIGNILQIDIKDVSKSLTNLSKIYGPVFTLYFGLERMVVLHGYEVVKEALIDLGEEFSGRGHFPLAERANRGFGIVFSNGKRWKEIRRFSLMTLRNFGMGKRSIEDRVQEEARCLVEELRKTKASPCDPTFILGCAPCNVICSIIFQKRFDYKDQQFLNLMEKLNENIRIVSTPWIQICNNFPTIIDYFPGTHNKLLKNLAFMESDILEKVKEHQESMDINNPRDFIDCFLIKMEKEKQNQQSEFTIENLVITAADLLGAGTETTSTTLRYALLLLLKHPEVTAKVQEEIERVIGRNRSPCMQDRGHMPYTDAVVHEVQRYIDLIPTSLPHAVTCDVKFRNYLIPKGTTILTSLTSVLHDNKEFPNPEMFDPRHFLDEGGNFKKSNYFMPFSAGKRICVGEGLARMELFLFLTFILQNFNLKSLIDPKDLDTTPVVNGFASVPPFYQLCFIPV

[19] = molecular target: T2, Cytochrome P450 3A4; assay: Inhibition of CYP3A4; format: ADME
[20] = Volume of distribution at steady state in rat at 2 mg/kg, iv; format: ADME, organism-based; design: dose 2 mg/kg, route intravenous; conditions: in vivo, read-out: Vdss
[21] = Unbound fraction in rat plasma; format: ADME, cell-free
[22] = Aqueous equilibrium solubility of the compound by shake-flask technique; format: physicochemical; conditions: buffer
[23] = Chemical stability of compound assessed as half life; format: physicochemical
[24] = molecular target: T5, Cytochrome P450 2C9; assay: Inhibition of CYP2C9; format: ADME
[25] = Half life in rat at 2 mg/kg, iv; format: ADME, organism-based; design: dose 2 mg/kg, route intravenous; conditions: in vivo
[26] = molecular target: T7, Cytochrome P450 2C19; assay: Time dependent inhibition of CYP2C19; format: ADME
[27] = test system: rhinovirus B14; assay: Antiviral activity against Human rhinovirus 14 infected in human HeLa Ohio cells assessed as inhibition of virus-induced cytopathic effect by CellTiter-Glo assay; format: functional, organism-based; conditions: Rhinovirus B

Compound: CCOC(=O)c1ccc(OCCC2CN(c3ccc(C)nn3)C2)cc1
IC50 [1]: 31.6 nM

Compound: CCOC(=O)c1ccc(COCC2CCN(c3ccc(C)nn3)CC2)cc1
IC50 [1]: 100 nM

Compound: CCOC(=O)c1ccc(COC2CCN(c3ccc(C)nn3)CC2)cc1
IC50 [1]: 25.1 nM

Compound: CCOC(=O)c1ccc(OCCC2CN(c3ccc(C)nn3)CCO2)cc1 (stereo not drawn)
IC50 [1]: 63.1 nM

Compound: CCOC(=O)c1ccc(OCCC2(C#N)CCN(c3ccc(C)nn3)CC2)cc1
IC50 [1]: 158 nM

Compound: CCOC(=O)c1ccc(CCN2CCN(c3ccc(C)nn3)CC2)cc1
IC50 [1]: 79.4 nM

Compound: CCOC(=O)c1ccc(OCC2CCN(c3ccc(C)nn3)C2)cc1 (stereo not drawn)
IC50 [1]: 20 nM

Compound: CCOC(=O)c1ccc(OCC2CN(c3ccc(C)nn3)C2)cc1
IC50 [1]: 63.1 nM

Compound: CCOC(=O)c1ccc(COC2CN(c3ccc(C)nn3)C2)cc1
IC50 [1]: 63.1 nM

Compound: CCOC(=O)c1ccc(OCCC2CCN(c3ccc(C)nn3)CC2)nc1
IC50 [1]: 63.1 nM

Compound: CCOC(=O)c1ccc(OCCC2CCN(c3ccc(C)nn3)CC2)cn1
IC50 [1]: 2510 nM

Compound: CCOc1nc2ccc(OCCC3CCN(c4ccc(C)nn4)CC3)cn2n1
IC50 [1]: 1580 nM

Compound: CCOc1nnc2cc(OCCC3CCN(c4ccc(C)nn4)CC3)ccn12
IC50 [1]: 1580 nM

Compound: Cc1ccc(N2CCC(CCOc3ccc(S(C)(=O)=O)cc3)CC2)nn1
IC50 [1]: 2000 nM

Compound: Cc1ccc(N2CCC(CCOc3ccc([S+](C)[O-])cc3)CC2)nn1 (stereo not drawn)
IC50 [1]: > 31600 nM

EC50 [2]: 31.6 µM | logD [3]: 2.6 | hepatocyte CLint [4]: 5 µL/min/1e6 cells | IC50 [5]: > 50.1 µM | Emax [6]: 19% | Papp [8]: 47 ×10⁻⁶ cm/s | bioavailability [9]: 60% | microsomal CLint [10]: 26 µL/min/mg | fraction unbound [11]: 0.06 | IC50 [12]: > 50.1 µM | IC50 [13]: > 10 µM | clearance [14]: 9 mL/min/kg | IC50 [15]: > 50.1 µM | IC50 [16]: > 10 µM | IC50 [17]: > 50.1 µM | IC50 [18]: > 10 µM | IC50 [19]: > 10 µM | Vd [20]: 1.5 L/kg | fraction unbound [21]: 0.05 | solubility thermodynamic [22]: 125 µM (≈ 42.2 µg/mL) | half-life [23]: > 8.33 days | IC50 [24]: > 10 µM | half-life [25]: 132 min | IC50 [26]: > 50.1 µM
Compound: Cc1ccc(N2CC(COc3ccc(-c4noc(C)n4)cc3)C2)nn1
IC50 [7]: 50.1 nM | IC50 [1]: 79.4 nM

Compound: CCOC(=O)c1ccc(OCCC2CCN(c3ccc(C)nn3)CC2)cc1 [PIRODAVIR]
IC50 [7]: < 100 nM | IC50 [1]: 63.1 nM | IC50 [27]: < 100 nM

EC50 [2]: 0.251 µM | logD [3]: > 4.5 | hepatocyte CLint [4]: 20 µL/min/1e6 cells | Emax [6]: 88% | microsomal CLint [10]: 22 µL/min/mg | fraction unbound [11]: 0.0013 | IC50 [12]: > 50.1 µM | IC50 [13]: 6.31 µM | IC50 [15]: > 50.1 µM | IC50 [16]: > 10 µM | IC50 [17]: > 50.1 µM | IC50 [18]: > 10 µM | fraction unbound [21]: < 0.002 | solubility thermodynamic [22]: < 2 µM | IC50 [24]: > 10 µM | IC50 [26]: > 50.1 µM
Compound: Cc1cc(CCCOc2c(C)cc(-c3noc(C(F)(F)F)n3)cc2C)on1 [PLECONARIL]
IC50 [7]: 100 nM | IC50 [1]: 1000 nM | IC50 [27]: < 100 nM
